The values below come from patent US12037306B2, “Methods of treating neurofibromatosis type 1 with N-((R))-2,3-dihydroxypropoxy)-3,4-difluoro-2-(2-fluoro-4-iodophenylamino)-benzamide” (Warner-Lambert Company LLC, priority 2021, dated 2024).

A short description of the data set: Form IV stability by XRPD comparison to a reference standard after storage. The data set is classed as physicochemical. The following applies: stored at 25° C. and 65% relative humidity. The procedure:
In some aspects, the XRPD pattern is generated using a PANALYTICAL® X'Pert Pro diffractometer using Ni-filtered Cu Kα (45 kV/40 mA) radiation and a step size of 0.03° 2θ with a X'CELERATOR® Real Time Multi-Strip detector, configured (a) on the incidental beam side as follows: variable divergence slits (10 mm irradiated length), 0.04 rad Soller slits, fixed anti-scatter slit (0.50°), and 10 mm beam mask, and (b) on the diffracted beam side as follows: variable anti-scatter slit (10 mm observed length) and 0.04 rad Soller slit or a BRUKER® D8® ADVANCE™ system using Cu Kα (40 kV/40 mA) radiation and a step size of 0.03° 2θ with a LYNXEYE™ detector, configured (a) on the incidental beam side as follows: Göebel mirror, mirror exit slit (0.2 mm), 2.5° Soller slit, beam knife, and (b) on the diffracted beam side as follows: anti-scatter slit (8 mm) and 2.5° Soller slit, wherein samples are mounted flat on zero-background Si wafers. In some aspects, the DSC pattern is generated using a TA Instruments Q100 or Q2000 differential scanning calorimeter at a rate of temperature increase of about 15° C./min.
Stability of Form IV material was determined by comparing the XRPD spectrum of a batch to a reference standard XRPD spectrum. This analysis was performed at batch release, and the XRPD spectrum obtained corresponded to that of the reference standard of Form IV (FIG. 2). […]

As for `O=C(NOC[C@H](O)CO)c1ccc(F)c(F)c1Nc1ccc(I)cc1F` [Form IV, N—((R)-2,3-dihydroxypropoxy)-3,4-difluoro-2-(2-fluoro-4-iodo-phenylamino)-benzamide], the “Changes in the XRPD spectrum over time (stability of Form IV)” value is, setting by setting: (XRPD at 68 months (FIG. 3A)) “Undetectable changes”; (XRPD at 140 months (FIG. 3B)) “Undetectable changes”.
